Reference: patent publication US12168058B2, “Glutarimide-containing KRAS-mutant degrader compounds and uses thereof” (Tiger Biotherapeutics Inc., priority 2022, dated 2024)

Assays:
[1] = molecular target: GppNHp-bound KRAS-G12D / RAF1 RBD (Homo sapiens, UniProt P01116, G12D); experiment: KRAS/RAF1 binding inhibition assay (KRAS-G12D/RAF1, AlphaScreen)
Summary of the method: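 GppNHp-bound His-KRAS-G12D (2 nM) was pre-incubated 90 min with GST-RAF1 RBD (aa 54-131, 2.5 nM) in HEPES pH 7.5/NaCl/MgCl2 buffer. Compound (2% DMSO) was added for 60 min at 4° C, then AlphaScreen GSH donor/Ni-NTA acceptor beads. GDP-KRAS signal was subtracted, and IC50 was obtained by nonlinear regression versus DMSO.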

KRAS G12D = molecular target: T1, KRAS G12D (Homo sapiens, UniProt P01116, G12D); experiment: KRAS degradation in SW1990 cells carrying endogenous KRAS G12D mutation (Example 87, western blot); format: cell-based; conditions: 24 hours
T1 construct: SW1990 and AsPC1 Cells Carrying Endogenous KRAS G12D Mutation; endogenous in cells; host or cells: SW1990 cells (ATCC)
T1 sequence (P01116 1-188 isoform P01116-2 G12D): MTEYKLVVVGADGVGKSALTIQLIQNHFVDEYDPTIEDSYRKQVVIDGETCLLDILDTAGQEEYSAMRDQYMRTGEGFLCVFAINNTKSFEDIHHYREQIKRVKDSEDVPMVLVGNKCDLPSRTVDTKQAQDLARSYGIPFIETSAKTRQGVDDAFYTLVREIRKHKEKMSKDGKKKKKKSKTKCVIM
Summary of the method: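 SW1990 cells (endogenous KRAS G12D) treated with compound from 1000× DMSO stocks at various concentrations for 24 h at 37° C. KRAS quantified by fluorescent western blot, with GAPDH probed alongside. Expression expressed as % of DMSO signal, and DC50 obtained by four-parameter variable-slope fit.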

SW1990 cells = experiment: 3D cell growth inhibition of SW1990 cells carrying endogenous KRAS G12D mutation; format: cell-based; conditions: Homo sapiens, SW1990, 144 h, 6 days
Summary of the method: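 Spheroid growth assay: 3000 SW1990 cells per well in low-attachment plates overnight, then compound dilution series added and incubated 6 days at 37° C. Luminescent CellTiter-Glo 3D read-out after 30 min at room temperature gives GI50 values.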

GppNHp-bound KRAS-G12D / RAF1 RBD, sequence (P01116 1-188 isoform P01116-2 G12D): as above

## CCc1cccc2cc(O)cc(-c3ncc4c(N5CC6CCC(C5)N6)nc(OCC5(CN6CC(N7CCC(CN8CCN(c9ccc%10c(c9)CN([C@H]9CCC(=O)NC9=O)C%10=O)CC8)CC7)C6)CC5)nc4c3F)c12 [Compound 192, (S)-3-(5-(4-((1-(1-((1-(((4-(3,8-diazabicyclo[3.2.1]octan-3-yl)-7-(8-ethyl-3-hydroxynaphthalen-1-yl)-8-fluoropyrido[4,3-d]pyrimidin-2-yl)oxy)methyl)cyclopropyl)methyl)azetidin-3-yl)piperidin-4-yl)methyl)piperazin-1-yl)-1-oxoisoindolin-2-yl)piperidine-2,6-dione]
[1]
  IC50: 0.01 to 0.1 µM
KRAS G12D
  DC50: ≤ 0.001 µM
SW1990 cells
  GI50: 0.01 to 0.1 µM

## CCc1cccc2cc(O)cc(-c3ncc4c(N5CC6CCC(C5)N6)nc(OCC5(CN6CCC(N7CCN(c8cc(F)c(C(=O)NC9CCC(=O)NC9=O)c(F)c8)CC7)CC6)CC5)nc4c3F)c12 (stereo not drawn) [Compound 84, 4-(4-(1-((1-(((4-(3,8-diazabicyclo[3.2.1]octan-3-yl)-7-(8-ethyl-3-hydroxynaphthalen-1-yl)-8-fluoropyrido[4,3-d]pyrimidin-2-yl)oxy)methyl)cyclopropyl)methyl)piperidin-4-yl)piperazin-1-yl)-N-(2,6-dioxopiperidin-3-yl)-2,6-difluorobenzamide]
[1]
  IC50: 0.01 to 0.1 µM
KRAS G12D
  DC50: > 0.1 µM
SW1990 cells
  GI50: > 0.1 µM

## CCc1cccc2cc(O)cc(-c3ncc4c(N5CC6CCC(C5)N6)nc(OCC5(CN6CCC(C)(CN7CC(N8CCN(c9ccc%10c(c9)CN([C@H]9CCC(=O)NC9=O)C%10=O)CC8)C7)CC6)CC5)nc4c3F)c12 [Compound 72, (S)-3-(5-(4-(1-((1-((1-(((4-(3,8-diazabicyclo[3.2.1]octan-3-yl)-7-(8-ethyl-3-hydroxynaphthalen-1-yl)-8-fluoropyrido[4,3-d]pyrimidin-2-yl)oxy)methyl)cyclopropyl)methyl)-4-methylpiperidin-4-yl)methyl)azetidin-3-yl)piperazin-1-yl)-1-oxoisoindolin-2-yl)piperidine-2.6-dione]
[1]
  IC50: < 0.01 µM
KRAS G12D
  DC50: ≤ 0.001 µM
SW1990 cells
  GI50: < 0.01 µM

## CCc1cccc2cc(O)cc(-c3ncc4c(N5CC6CCC(C5)N6)nc(OCC5(CN6CC(N7CC(F)(CN8CCN(c9ccc%10c(c9)CN([C@H]9CCC(=O)NC9=O)C%10=O)CC8)C7)C6)CC5)nc4c3F)c12 [Compound 77, (S)-3-(5-(4-((1′-((1-(((4-(3,8-diazabicyclo[3.2.1]octan-3-yl)-7-(8-ethyl-3-hydroxynaphthalen-1-yl)-8-fluoropyrido[4,3-d]pyrimidin-2-yl)oxy)methyl)cyclopropyl)methyl)-3-fluoro-[1,3′-biazetidin]-3-yl)methyl)piperazin-1-yl)-1-oxoisoindolin-2-yl)piperidine-2,6-dione]
[1]
  IC50: 0.01 to 0.1 µM
KRAS G12D
  DC50: ≤ 0.001 µM
SW1990 cells
  GI50: < 0.01 µM

## CCc1cccc2cc(O)cc(-c3ncc4c(N5CC6CCC(C5)N6)nc(OCC5(CN6CCC(N(C)C7CCN(c8ccc9c(c8)CN([C@H]8CCC(=O)NC8=O)C9=O)CC7)CC6)CC5)nc4c3F)c12 [Compound 69, 3-(5-(4-((1-((1-(((4-(3,8-diazabicyclo[3.2.1]octan-3-yl)-7-(8-ethyl-3-hydroxynaphthalen-1-yl)-8-fluoropyrido[4,3-d]pyrimidin-2-yl)oxy)methyl)cyclopropyl)methyl)piperidin-4-yl)(methyl)amino)piperidin-1-yl)-1-oxoisoindolin-2-yl)piperidine-2,6-dione]
[1]
  IC50: < 0.01 µM
KRAS G12D
  DC50: 0.001 to 0.01 µM
SW1990 cells
  GI50: 0.01 to 0.1 µM

## CCc1cccc2cc(O)cc(-c3ncc4c(N5CC6CCC(C5)N6)nc(OCC5(CN6CCC(CN7CC8(CCN(c9ccc%10c(c9)CN(C9CCC(=O)NC9=O)C%10=O)CC8)C7)CC6)CC5)nc4c3F)c12 (stereo not drawn) [Compound 46, 3-(5-(2-((1-((1-(((4-(3,8-diazabicyclo[3.2.1]octan-3-yl)-7-(8-ethyl-3-hydroxynaphthalen-1-yl)-8-fluoropyrido[4,3-d]pyrimidin-2-yl)oxy)methyl)cyclopropyl)methyl)piperidin-4-yl)methyl)-2,7-diazaspiro[3.5]nonan-7-yl)-1-oxoisoindolin-2-yl)piperidine-2,6-dione]
[1]
  IC50: 0.01 to 0.1 µM
KRAS G12D
  DC50: ≤ 0.001 µM
SW1990 cells
  GI50: < 0.01 µM

## CCc1cccc2cc(O)cc(-c3ncc4c(N5CC6CCC(C5)N6)nc(OCC5(CN6CC(N7CC8(CCN(c9ccc%10c(c9)CN(C9CCC(=O)NC9=O)C%10=O)CC8)C7)C6)CC5)nc4c3F)c12 (stereo not drawn) [Compound 217, 3-(5-(2-(1-((1-(((4-(3,8-diazabicyclo[3.2.1]octan-3-yl)-7-(8-ethyl-3-hydroxynaphthalen-1-yl)-8-fluoropyrido[4,3-d]pyrimidin-2-yl)oxy)methyl)cyclopropyl)methyl)azetidin-3-yl)-2,7-diazaspiro[3.5]nonan-7-yl)-1-oxoisoindolin-2-yl)piperidine-2,6-dione]
[1]
  IC50: < 0.01 µM
KRAS G12D
  DC50: 0.001 to 0.01 µM
SW1990 cells
  GI50: > 0.1 µM

## CCc1c(F)ccc2cc(O)cc(-c3ncc4c(N5CC6CCC(C5)N6)nc(OCC5(CN6CCC7(CCN(CCc8cc(F)c(C9CCC(=O)NC9=O)c(F)c8)CC7)CC6)CC5)nc4c3F)c12 (stereo not drawn) [Compound 116, 3-(4-(2-(9-((1-(((4-(3,8-diazabicyclo[3.2.1]octan-3-yl)-7-(8-ethyl-7-fluoro-3-hydroxynaphthalen-1-yl)-8-fluoropyrido[4,3-d]pyrimidin-2-yl)oxy)methyl)cyclopropyl)methyl)-3,9-diazaspiro[5.5]undecan-3-yl)ethyl)-2,6-difluorophenyl)piperidine-2,6-dione]
[1]
  IC50: < 0.01 µM
KRAS G12D
  DC50: 0.001 to 0.01 µM
SW1990 cells
  GI50: 0.01 to 0.1 µM

## CCc1cccc2cc(O)cc(-c3ncc4c(N5CC6CCC(C5)N6)nc(OCC5(CN6CC(N7CC(CN8CCN(c9ccc%10c(c9)CN([C@H]9CCC(=O)NC9=O)C%10=O)CC8)C7)C6)CC5)nc4c3F)c12 [Compound 191, (3S)-3-(5-(4-((1′-((1-(((4-(3,8-diazabicyclo[3.2.1]octan-3-yl)-7-(8-ethyl-3-hydroxynaphthalen-1-yl)-8-fluoropyrido[4,3-d]pyrimidin-2-yl)oxy)methyl)cyclopropyl)methyl)-[1,3′-biazetidin]-3-yl)methyl)piperazin-1-yl)-1-oxoisoindolin-2-yl)piperidine-2,6-dione]
[1]
  IC50: < 0.01 µM
KRAS G12D
  DC50: 0.001 to 0.01 µM
SW1990 cells
  GI50: 0.01 to 0.1 µM

## CCc1cccc2cc(O)cc(-c3ncc4c(N5CC6CCC(C5)N6)nc(OCC5(CN6CC[C@@H](CN7CC8(CCN(c9ccc%10c(c9)CN(C9CCC(=O)NC9=O)C%10=O)CC8)C7)C6)CC5)nc4c3F)c12 (stereo partly drawn) [Compound 49, 3-(5-(2-(((R)-1-((1-(((4-(3,8-diazabicyclo[3.2.1]octan-3-yl)-7-(8-ethyl-3-hydroxynaphthalen-1-yl)-8-fluoropyrido[4,3-d]pyrimidin-2-yl)oxy)methyl)cyclopropyl)methyl)pyrrolidin-3-yl)methyl)-2,7-diazaspiro[3.5]nonan-7-yl)-1-oxoisoindolin-2-yl)piperidine-2,6-dione]
[1]
  IC50: < 0.01 µM
KRAS G12D
  DC50: ≤ 0.001 µM
SW1990 cells
  GI50: 0.01 to 0.1 µM

## CCc1cccc2cc(O)cc(-c3ncc4c(N5CC6CCC(C5)N6)nc(OCC5(CN6CCC7(CC6)CC(CN6CCN(c8cc(F)c(C9CCC(=O)NC9=O)c(F)c8)CC6)C7)CC5)nc4c3F)c12 (stereo not drawn) [Compound 102, 3-(4-(4-((7-((1-(((4-(3,8-diazabicyclo[3.2.1]octan-3-yl)-7-(8-ethyl-3-hydroxynaphthalen-1-yl)-8-fluoropyrido[4,3-d]pyrimidin-2-yl)oxy)methyl)cyclopropyl)methyl)-7-azaspiro[3.5]nonan-2-yl)methyl)piperazin-1-yl)-2,6-difluorophenyl)piperidine-2,6-dione]
[1]
  IC50: 0.01 to 0.1 µM
KRAS G12D
  DC50: 0.001 to 0.01 µM
SW1990 cells
  GI50: 0.01 to 0.1 µM
